Source: patent US5093127A, “Preparation of FR115224 substrate for parenteral administration” (Fujisawa Pharmaceutical Co., Ltd., priority 1989, dated 1992)
Numbered stars: 1 amine (or outer) side, 2 acyl side, 3 side chain; on linkers, the order of the positions; unused ones are H or OH. Bridge positions count the residues as written; N and C are the ends. Square brackets hold non-standard residues; d marks the D form. Peptide text beside a SMILES is read from it. * marks the point of attachment. X2 = CN(/C(=C/c1ccc(O)cc1)C(=O)[*:2])[*:1]; aThr = C[C@H](O)[C@H](N)C(=O)O; X1 = CCCCCc1ccccc1CCC(=O)*

Experiments:
[1] = Solubility test of FR115224 substance in water with cyclodextrins; format: physicochemical; details: for Solubility of FR115224 substance: distilled water, room temperature
Protocol: FR115224 substance (125 mg) was charged in 13 sample bottles, respectively and distilled water (2.5 ml) was added thereto.
Then, α-cyclodextrin, β-cyclodextrin, hydroxypropyl β-cyclodextrin or γ-cyclodextrin was charged to each of the sample bottles in amounts of […] (cyclodextrin content: 0.16% w/v), 2.5 mg (cyclodextrin content: 1% w/v) or 12.5 mg (cyclodextrin content: 5% w/v), respectively. No cyclodextrin was charged in one sample bottle, which was made control. After stirring at room temperature for 12 hours, the concentration of FR115224 substance in each aqueous phase was measured to determine the solubility of FR115224 substance.

[2] = 20° C.; cited from earlier work

CCCCCc1ccccc1CCC(=O)N[C@@H]1C(=O)N(C)/C(=C/c2ccc(O)cc2)C(=O)N[C@@H](CC(C)C)C(=O)N[C@H](Cc2ccccc2)C(=O)N[C@@H]([C@H](C)O)C(=O)N[C@@H](CC(N)=O)C(=O)N[C@@H](CO)C(=O)O[C@@H]1C [FR115224 substance] (X1-T[X2]L[dF][aThr]NS; ester 1-C)
Effect of cyclodextrin on the solubility of FR115224 substance in water ([1]; conclusion from Table 1): markedly increase | Solubility of FR115224 substance ([1]; no cyclodextrin (0 % w/v, control), stirred 12 hours): 0.003 % w/v | Solubility of FR115224 substance ([1]; hydroxypropyl β-cyclodextrin 0.16 % w/v, 12 hours): 0.009 % w/v | Solubility of FR115224 substance ([1]; hydroxypropyl β-cyclodextrin 1 % w/v, 12 hours): 0.06 % w/v | Solubility of FR115224 substance ([1]; hydroxypropyl β-cyclodextrin 5 % w/v, 12 hours): 0.49 % w/v | Solubility of FR115224 substance ([1]; α-cyclodextrin 0.16 % w/v, 12 hours): 0.008 % w/v | Solubility of FR115224 substance ([1]; α-cyclodextrin 1 % w/v, 12 hours): 0.03 % w/v | Solubility of FR115224 substance ([1]; α-cyclodextrin 5 % w/v, 12 hours): 0.14 % w/v | Solubility of FR115224 substance ([1]; β-cyclodextrin 0.16 % w/v, 12 hours): 0.013 % w/v | Solubility of FR115224 substance ([1]; β-cyclodextrin 1 % w/v, 12 hours): 0.11 % w/v | Solubility of FR115224 substance ([1]; β-cyclodextrin 5 % w/v, 12 hours): 0.34 % w/v | Solubility of FR115224 substance ([1]; γ-cyclodextrin 0.16 % w/v, 12 hours): 0.006 % w/v | Solubility of FR115224 substance ([1]; γ-cyclodextrin 1 % w/v, 12 hours): 0.03 % w/v | Solubility of FR115224 substance ([1]; γ-cyclodextrin 5 % w/v, 12 hours): 0.16 % w/v

C(=C\c1ccccc1)/CN1CCN(C(c2ccccc2)c2ccccc2)CC1 [Cinnarizine]
Increase of water solubility by inclusion compound with β-cyclodextrin [2]: about 5 times
